From US20250051350A1, “Dihydroartemisinin derivatives and the treatment of fibrotic diseases” (GreenStone Biosciences, Inc., priority 2023, published 2025)
Converted amounts (≈) assume the structure as drawn. Like-named read-outs stand apart in the source and are kept apart here.

Tests used:
[1] = test system: Induced pluripotent stem cell-derived cardiac fibroblasts (ACTA2-GFP); experiment: Antifibrotic effects in TGF-β-activated iPSC-derived cardiac fibroblasts (ACTA2-GFP fluorescence); type: cell-based; settings: for IC50 / reduction in fluorescence (fibrotic marker ACTA2-GFP): activated with TGF-β, 48 hours; for IC50: simultaneous treatment, ACTA2-GFP fluorescence, read-out: IC50, reduction in fluorescence; for reduction in fluorescence (fibrotic marker ACTA2-GFP): various concentrations
Description: Induced pluripotent stem cell-derived cardiac fibroblasts were constructed containing a fusion of the alpha-smooth muscle actin to the green fluorescent protein (ACTA2-GFP) construct. ACTA2 is a myofibroblast marker, such that the fibroblasts fluoresce with an intensity dependent on the extent of fibrosis.

[2] = Intravenous and oral pharmacokinetics in mice; type: in vivo; settings: male C57BL/6J mice
Method: The intravenous (IV) and oral (PO) pharmacokinetics of the PT compounds were measured in 6-10 week-old male C57BL/6J mice, using three mice/group. The test compounds were formulated in an appropriate water-based vehicle to give a clear solution for IV administration, or a clear solution or uniform suspension for PO administration. Animals were dosed within 4 hours of the preparation of the formulations; with the dose volume being determined by the animal's body weight measured on the morning of the dosing day. Blood samples (about 25 μL per time point) were taken at 5 and 15 minutes and 1, 3, and 5 hours after dosing, into pre-chilled EDTA-K2 tubes and kept on wet ice until centrifugation. The tubes were centrifuged at 3200×g at about 4° C. for 10 minutes, and the plasma analyzed by LC-MS/MS.

[3] = test system: primary pulmonary fibroblasts; experiment: Antifibrotic efficacy in primary pulmonary fibroblasts; type: cell-based
[4] = Hygroscopicity of PT-30; type: physicochemical; settings: from 40% to 95% RH
Method: (§1) PT-30, DHA 5-oxo-2,6-diazaspiro[3.4]octane-2-carboxylate, (3R,5aS,6R,8aS,9R,12S,12aR)-decahydro-3,6,9-trimethyl-3,12-epoxy-12H-pyrano[4,3-j]-1,2-benzodioxepin-10-yl 5-oxo-2,6-diazaspiro[3.4]octane-2-carboxylate, was a white crystalline solid as prepared. […] PT-30 had low solubility (<0.1 mg/mL) in aqueous acidic conditions and in simulated gastric fluid, and a solubility of about 0.7 mg/mL in fasted-state and fed-state simulated intestinal fluids.

[5] = test system: MD2 signaling pathway (HEK Blue-TLR4 cells); experiment: HEK Blue-TLR4 assay (MD2 pathway); type: cell-based; settings: 1 h preincubation, 10 ng/mL lipopolysaccharide, read after 20 hours at 655 nm
Method: HEK Blue-TLR4 cells were plated in detection media, preincubated with vehicle or PT-2, PT-14, or PT-30 dissolved in vehicle (with artesunate, DHA, and artemisinin comparators) for 1 h, then co-stimulated with 10 ng/mL lipopolysaccharide. Reporter activity was read after 20 hours at 655 nm in a spectrophotometer. The PT compounds were active in this assay, showing that they inhibit the MD2 signaling pathway.

[6] = Solubility of PT-30; type: physicochemical
Method: as §1

[7] = in vitro; type: in vitro ADME; settings: for fraction unbound: plasma
Method: Plasma protein binding assays were conducted in triplicate for compounds PT-2, PT-14, PT-28, and PT-30, with artesunate, DHA, and warfarin as comparators.

[8] = Solid-state stability of PT-30; type: physicochemical
Method: as §1

[9] = test system: bleomycin injury mouse skin model; experiment: Bleomycin injury mouse skin model; type: in vivo; settings: topical administration (50 μL, 100 μM in 0.1% DMSO/PBS)
[10] = test system: CCl4 injury mouse liver model; experiment: CCl4 injury mouse liver model; type: in vivo; settings: oral administration
[11] = test system: bleomycin-induced pulmonary fibrosis model; settings: bleomycin-induced pulmonary fibrosis model in rats; cited from earlier work

Row | recovery ([7]; human) | fraction unbound ([7]; human) | recovery ([7]; mouse) | fraction unbound ([7]; mouse) | SMILES | IV AUC0-last ([2]; IV, plasma) | IV Clearance ([2]; IV, plasma) | IV T1/2 ([2]; IV, plasma) | IV VD,ss ([2]; IV, plasma) | PO Bioavailability ([2]; PO) | PO AUC0-last ([2]; PO, plasma) | PO T1/2 ([2]; PO, plasma) | also measured
1 |  |  |  |  | CC(CO)C(=O)OC1OC2OC3(C)CCC4C(C)CCC(C1C)C24OO3 (stereo not drawn) [PT-1, DHA 3-hydroxy-2-methylpropionate] | 100 ng·h/mL | 1280 mL/min/kg | 7.8 min | 9.0 L/kg | 1.3% | 20 ng·h/mL | 22.2 min | IC50 [1]: 2300 nM
2 |  |  |  |  | CC1CCC2C(C)C(OC(=O)N(C)CCO)OC3OC4(C)CCC1C32OO4 (stereo not drawn) [PT-20, DHA (2-hydroxyethyl)(methyl)carbamate] | 2400 ng·h/mL | 69 mL/min/kg | 14.4 min | 0.8 L/kg | 73% | 17700 ng·h/mL | 31.8 min | 
3 | 84.9% | 0.455 | 87.6% | 0.079 | C[C@@H]1CC[C@H]2[C@@H](C)C(OC(=O)N3CC4(CCNC4=O)C3)O[C@H]3O[C@@]4(C)CC[C@@H]1[C@]32OO4 (stereo partly drawn) [PT-30, (3R,5aS,6R,8aS,9R,12S,12aR)-decahydro-3,6,9-trimethyl-3,12-epoxy-12H-pyrano[4,3-j]-1,2-benzodioxepin-10-yl 5-oxo-2,6-diazaspiro[3.4]octane-2-carboxylate] |  |  |  |  |  |  |  | antifibrotic efficacy, effect on acta2, colla1, and CTGF [3]: demonstrated antifibrotic efficacy; hygroscopicity, water uptake [4]: 0.5%; activity in HEK Blue-TLR4 reporter assay (inhibition of MD2 signaling pathway) [5]: active; solubility ([6]; aqueous acidic conditions, aqueous buffer): < 100 µg/mL; solubility in organic solvents ([6]; common organic solvents, greatest in methanol and tetrahydrofuran): soluble in common organic solvents; solubility ([6]; fasted-state simulated intestinal fluid, fassif): ~700 µg/mL (≈ 1600 µM); solubility ([6]; fed-state simulated intestinal fluid, fessif): ~700 µg/mL (≈ 1600 µM); solubility ([6]; simulated gastric fluid): < 100 µg/mL; antifibrotic efficacy in this model ([1]; TGF-β-activated iPSC-derived cardiac fibroblasts): demonstrated antifibrotic efficacy; chemical and crystal form stability ([8]; 25° C./60% RH for 1 week): chemically stable without crystal form change; chemical and crystal form stability ([8]; 40° C./75% RH for 1 week): chemically stable without crystal form change; antifibrotic efficacy [9]: demonstrated antifibrotic efficacy; bioavailability ([2]; mouse, plasma, PO): 73%; clearance ([2]; mouse, IV, plasma): 30 mL/min/kg; AUC(0-t) ([2]; mouse, IV, plasma, read-out: IV AUC0-last): 5300 ng·h/mL; half-life ([2]; mouse, IV, plasma, read-out: IV T1/2 (converted)): 13.2 min; Vd ([2]; mouse, IV, plasma, read-out: IV VD,ss): 0.6 L/kg; AUC(0-t) ([2]; mouse, PO, plasma, read-out: PO AUC0-last): 40900 ng·h/mL; half-life ([2]; mouse, PO, plasma, read-out: PO T1/2 (converted)): 20.4 min; antifibrotic efficacy [10]: demonstrated antifibrotic efficacy
4 | 102% | 0.108 | 105% | 0.1 | C[C@H]1[C@@H](O)OC2O[C@@]3(C)CC[C@H]4[C@H](C)CC[C@@H]1[C@@]24OO3 (stereo in doubt) [DHA, (3R,5aS,6R,8aS,9R,12S,12aR)-decahydro-3,6,9-trimethyl-3,12-epoxy-12H-pyrano[4,3-j]-1,2-benzodioxepin-10-ol] |  |  |  |  |  |  |  | reduction in fluorescence (fibrotic marker ACTA2-GFP) [1]: dose-dependent reduction in fluorescence
5 | 98% | 0.233 | 53.4% | 0.278 | C[C@H]1[C@H](OC(=O)CCC(=O)O)O[C@@H]2O[C@@]3(C)CC[C@H]4[C@H](C)CC[C@@H]1[C@@]24OO3 [artesunate] |  |  |  |  |  |  |  | antifibrotic activity [11]: active as an antifibrotic agent; IC50 ([1]; Cardiac fibroblast): 2800 nM; reduction in fluorescence (fibrotic marker ACTA2-GFP) [1]: dose-dependent reduction in fluorescence
6 |  |  |  |  | CC1CCC2C(C)C(OC(=O)N3CC(C)(C(=O)O)C3)OC3OC4(C)CCC1C32OO4 (stereo not drawn) [PT-25, DHA 3-carboxy-3-methylazetidine-1-carboxylate] | 2200 ng·h/mL | 74 mL/min/kg | 16.2 min | 1.3 L/kg | 17% | 3700 ng·h/mL | 113 min | 
7 |  |  |  |  | C[C@H]1[C@@H](OC(=O)C(C)(C)CO)O[C@@H]2O[C@@]3(C)CC[C@H]4[C@H](C)CC[C@@H]1[C@@]24OO3 [PT-2, DHA 3-hydroxy-2,2-dimethylpropanoate] | 1200 ng·h/mL | 140 mL/min/kg | 6 min | 1.3 L/kg | 27% | 3200 ng·h/mL |  | activity in HEK Blue-TLR4 reporter assay (inhibition of MD2 signaling pathway) [5]: active; IC50 [1]: 880 nM
